What was measured:
[1] = target: T1, ACAT1 (Homo sapiens, UniProt P24752); experiment: Proteome-wide SILAC MS protein abundance in HEK293T cells: ACAT1; format: cell-based; conditions: 24 hours
T1 construct: endogenous in cells; host or cells: HEK293T
T1 sequence (P24752 34-427): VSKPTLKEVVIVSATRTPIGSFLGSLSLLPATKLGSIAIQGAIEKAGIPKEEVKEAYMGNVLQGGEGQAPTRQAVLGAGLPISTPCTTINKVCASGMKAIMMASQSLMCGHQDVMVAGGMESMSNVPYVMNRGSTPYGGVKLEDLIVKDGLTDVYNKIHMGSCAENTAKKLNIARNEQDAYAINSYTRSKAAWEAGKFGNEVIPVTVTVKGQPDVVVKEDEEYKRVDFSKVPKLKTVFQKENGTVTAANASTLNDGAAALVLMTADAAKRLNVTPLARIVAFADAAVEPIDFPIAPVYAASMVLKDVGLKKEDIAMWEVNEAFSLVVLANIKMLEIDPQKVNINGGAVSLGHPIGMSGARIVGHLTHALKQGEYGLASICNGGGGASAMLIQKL
Procedure: HEK293T light and heavy SILAC cells were treated with DMSO and KB02-JQ1 (20 μM) or KB02-SLF (2 μM) for 24 hours, respectively. Light and heavy cells were collected and lysed in 1% NP-40 lysis buffer with complete protease inhibitor cocktail. Cells were vortexed and sonicated for 5 pulses (40%, 4). The supernatant was collected after centrifugation at 16,000 g for 10 min at 4° C. Protein concentration was determined by DC assay. 50 μg proteome from light and heavy samples were mixed, followed by methanol/chloroform precipitation. […] Next, the ratio of the peak areas under the light and heavy signals (signal-to-noise ratio>2.5) was calculated. […] In addition, peptides detected as ‘singletons,’ where only the heavy ion of a peptide pair was identified, but that cleared all other filtering parameters, were given a default assigned ratio of ‘20,’ which is defined as any measured ratio that is ≥20 and is the maximum ratio reported here.” The median SILAC ratios from quantified peptides were used as measures of protein abundance. The following quality filters were further applied to generate the plot: (1) proteins must have at least two quantified peptides; (2) proteins must be present in both replicates; (3) for each protein, the standard deviation of measured ratios of peptides must be <1.0.

[2] = target: FLAG-FKBP12_NLS (Homo sapiens, UniProt P62942); experiment: Western blot of stably expressed FLAG-FKBP12_NLS in MDA-MB-231 cells; format: cell-based; set-up: expressed in transfected cells; host or cells: HEK293T, MDA-MB-231 and HEK293 DCAF16+/+ and DCAF16-/- clones (lentiviral pCDH-CMV-MCS-EF1-Puro); conditions: 1 μM, 8 hours
FLAG-FKBP12_NLS, sequence (P62942 whole entry): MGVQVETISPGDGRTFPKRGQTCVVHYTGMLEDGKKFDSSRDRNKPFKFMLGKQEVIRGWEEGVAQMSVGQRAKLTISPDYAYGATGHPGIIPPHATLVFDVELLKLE
Procedure: FLAG-FKBP12 or FLAG-FKBP12_NLS lentivirus was generated by co-transfection of FLAG-FKBP12 or FLAG-FKBP12_NLS, pCMV-dR8.2 and pMD2.G into HEK 293T cells using FuGene 6 transfection reagent (Promega). Virus-containing medium were collected 48 h after transfection, filtered with […] filter, and used to transduce HEK293T and MDA-MB-231 cells in the presence of 10 μg/mL polybrene (Santa Cruz). 72 h after transduction, puromycin (2 μg/mL) was added to cells. HEK293T cells stably expressing FLAG-FKBP12 or FLAG-FKBP12_NLS were obtained after puromycin selection for 7 days. HEK293T cells stably expressing pCDH empty vector were generated in parallel as control.
Cells were collected and lysed in 1% NP-40 lysis buffer (25 mM Tris-HCl pH 7.4, 150 mM NaCl, 10% glycerol, 1% Nonidet P-40) with complete protease inhibitor cocktail (Roche). Cells were vortexed and sonicated for 5 pulses (40%, 4). The supernatant was collected after centrifugation at 16,000 g for 10 min at 4° C. Protein concentration was determined by DC assay (Bio-Rad). Protein lysate was heated at 95° C. for 5 min in 1× Laemmli sample buffer. Proteins were resolved by 12% or 14% Novex Tris-Glycine Mini Gels (Invitrogen) and transferred to polyvinylidene fluoride (PVDF) membrane (0.2 Bio-Rad). The membrane was blocked with 5% BSA in TBST buffer (0.1% Tween 20, 20 mM Tris-HCl 7.6, 150 mM NaCl) at room temperature for 1 h. The antibody was diluted with fresh 5% BSA in TBST buffer (1:10000 dilution for FLAG, HA and β-Actin, 1:1000 dilution for others) and incubated with membrane (1 h room temperature for FLAG, HA and β-Actin, overnight 4° C. for others). Membrane was washed three times with TBST buffer and incubated with secondary antibody (1:5000 dilution in 5% BSA in TBST) at room temperature for 1 h. Membrane was washed three times with TBST buffer. The chemiluminescence signal in membrane was recorded after developing in ECL or ECL plus western blotting detection reagent using CL-XPosure film (Thermo Scientific). Relative band intensities were quantified using ImageJ.

SMILES | ACAT1 abundance (MS-based proteomics) ([1]; KB02-JQ1 20 μM) | ACAT1 abundance (MS-based proteomics) ([1]; KB02-SLF 2 μM) | degradation of FLAG-FKBP12_NLS in MDA-MB-231 cells [2]
Cc1sc2c(c1C)C(c1ccc(Cl)cc1)=N[C@@H](CC(=O)NCCOCCOCCNC(=O)COc1ccc3c(c1)CCCN3C(=O)CCl)c1nnc(C)n1-2 [KB02-JQ1, (S)-2-((1-(2-chloroacetyl)-1,2,3,4-tetrahydroquinolin-6-yl)oxy)-N-(2-(2-(2-(2-(4-(4-chlorophenyl)-2,3,9-trimethyl-6H-thieno[3,2-f][1,2,4]triazolo[4,3-a][1,4]diazepin-6-yl)acetamido)ethoxy)ethoxy)ethyl)acetamide] | substantially decreased abundance |  | 
CCC(C)(C)C(=O)C(=O)N1CCCC[C@H]1C(=O)O[C@H](CCc1ccc(OC)c(OC)c1)c1cccc(NC(=O)CCOCCOCCNC(=O)COc2ccc3c(c2)CCCN3C(=O)CCl)c1 [KB02-SLF, (R)-1-(3-(3-(2-(2-(2-((1-(2-chloroacetyl)-1,2,3,4-tetrahydroquinolin-6-yl)oxy)acetamido)ethoxy)ethoxy)propanamido)phenyl)-3-(3,4-dimethoxyphenyl)propyl (S)-1-(3,3-dimethyl-2-oxopentanoyl)piperidine-2-carboxylate] |  | reductions in ACAT1 | degrades FLAG-FKBP12_NLS

From patent US11691984B2, “Compounds and methods for DCAF-mediated protein degradation” (The Scripps Research Institute, priority 2018, dated 2023)
